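Five compound concentrations were applied to cells in 96-well plates for 48 hours; endpoints were derived by simple linear interpolation of the resulting dose-response curve. TGI marks complete inhibition of growth.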
Legend:
Experiment in all cases: inhibition of tumour cell growth, NCI panel, 48 h
786-0 renal = tested on: 786-0 renal
A498 renal = tested on: A498 renal
A549 NSCLC = tested on: A549 NSCLC
ACHN renal = tested on: ACHN renal
BT-549 breast = tested on: BT-549 breast
CAKI-1 renal = tested on: CAKI-1 renal
CCRF-CEM leukemia = tested on: CCRF-CEM leukemia
COLO 205 colon = tested on: COLO 205 colon
DU-145 prostate = tested on: DU-145 prostate
EKVX NSCLC = tested on: EKVX NSCLC
HCC-2998 colon = tested on: HCC-2998 colon
HCT-116 colon = tested on: HCT-116 colon
HCT-15 colon = tested on: HCT-15 colon
HOP-62 NSCLC = tested on: HOP-62 NSCLC
HOP-92 NSCLC = tested on: HOP-92 NSCLC
HT29 colon = tested on: HT29 colon
IGROV1 ovarian = tested on: IGROV1 ovarian
K-562 leukemia = tested on: K-562 leukemia
KM12 colon = tested on: KM12 colon
LOX IMVI melanoma = tested on: LOX IMVI melanoma
M14 melanoma = tested on: M14 melanoma
MALME-3M melanoma = tested on: MALME-3M melanoma
MCF7 breast = tested on: MCF7 breast
MDA-MB-435 = tested on: MDA-MB-435
MDA-N = tested on: MDA-N
MOLT-4 leukemia = tested on: MOLT-4 leukemia
NCI-H226 lung = tested on: NCI-H226 lung
NCI-H23 lung = tested on: NCI-H23 lung
NCI-H460 lung = tested on: NCI-H460 lung
NCI-H522 lung = tested on: NCI-H522 lung
NCI/ADR-RES ovarian = tested on: NCI/ADR-RES ovarian
OVCAR-3 ovarian = tested on: OVCAR-3 ovarian
OVCAR-4 ovarian = tested on: OVCAR-4 ovarian
OVCAR-5 ovarian = tested on: OVCAR-5 ovarian
OVCAR-8 ovarian = tested on: OVCAR-8 ovarian
PC-3 prostate = tested on: PC-3 prostate
RPMI-8226 leukemia = tested on: RPMI-8226 leukemia
RXF 393 renal = tested on: RXF 393 renal
SF-268 CNS = tested on: SF-268 CNS
SF-295 CNS = tested on: SF-295 CNS
SF-539 CNS = tested on: SF-539 CNS
SK-MEL-2 melanoma = tested on: SK-MEL-2 melanoma
SK-MEL-28 melanoma = tested on: SK-MEL-28 melanoma
SK-MEL-5 melanoma = tested on: SK-MEL-5 melanoma
SK-OV-3 ovarian = tested on: SK-OV-3 ovarian
SN12C renal = tested on: SN12C renal
SNB-19 CNS = tested on: SNB-19 CNS
SNB-75 CNS = tested on: SNB-75 CNS
SR leukemia = tested on: SR leukemia
SW-620 colon = tested on: SW-620 colon
T-47D breast = tested on: T-47D breast
TK-10 renal = tested on: TK-10 renal
U251 CNS = tested on: U251 CNS
UACC-257 melanoma = tested on: UACC-257 melanoma
UACC-62 melanoma = tested on: UACC-62 melanoma
UO-31 renal = tested on: UO-31 renal
HL-60(TB) leukemia = tested on: HL-60(TB) leukemia
HS 578T breast = tested on: HS 578T breast

Work on Nc1c(-c2ccc(Cl)c(Cl)c2)c2ccc([N+](=O)[O-])cc2c(=O)n1-c1nc2ccccc2s1 yielded a TGI (786-0 renal) of 19.6 µM, a TGI (A498 renal) of 24.3 µM and a TGI (A549 NSCLC) of over 43.8 µM. It also gave a TGI (ACHN renal) of 20.6 µM, a TGI (BT-549 breast) of 21.7 µM and a TGI (CAKI-1 renal) of over 39.7 µM. The TGI (CCRF-CEM leukemia) was 0.525 µM, the TGI (COLO 205 colon) was 2.89 µM and the TGI (DU-145 prostate) was over 100 µM. It also gave a TGI (EKVX NSCLC) of 46.8 µM, a TGI (HCC-2998 colon) of 92.6 µM and a TGI (HCT-116 colon) of 12.9 µM. It also gave a TGI (HCT-15 colon) of over 47 µM, a TGI (HOP-62 NSCLC) of over 38.6 µM and a TGI (HOP-92 NSCLC) of 2.81 µM. For the same compound, the TGI (HT29 colon) was over 34.2 µM, the TGI (IGROV1 ovarian) was over 100 µM and the TGI (K-562 leukemia) was over 100 µM. The TGI (KM12 colon) was over 100 µM, the TGI (LOX IMVI melanoma) was 27.3 µM and the TGI (M14 melanoma) was over 36.1 µM. It also gave a TGI (MALME-3M melanoma) of 9.72 µM, a TGI (MCF7 breast) of 21.1 µM and a TGI (MDA-MB-435) of over 100 µM. It also gave a TGI (MDA-N) of over 36 µM, a TGI (MOLT-4 leukemia) of over 100 µM and a TGI (NCI-H226 lung) of 50.3 µM. For the same compound, the TGI (NCI-H23 lung) was 3.13 µM, the TGI (NCI-H460 lung) was over 100 µM and the TGI (NCI-H522 lung) was 3.02 µM. For the same compound, the TGI (NCI/ADR-RES ovarian) was 6.8 µM, the TGI (OVCAR-3 ovarian) was over 100 µM and the TGI (OVCAR-4 ovarian) was over 100 µM. For the same compound, the TGI (OVCAR-5 ovarian) was over 74.2 µM, the TGI (OVCAR-8 ovarian) was 17.9 µM and the TGI (PC-3 prostate) was over 100 µM. It also gave a TGI (RPMI-8226 leukemia) of over 100 µM, a TGI (RXF 393 renal) of 16.8 µM and a TGI (SF-268 CNS) of over 39.4 µM. For the same compound, the TGI (SF-295 CNS) was 20.4 µM, the TGI (SF-539 CNS) was 16.3 µM and the TGI (SK-MEL-2 melanoma) was 14.4 µM. For the same compound, the TGI (SK-MEL-28 melanoma) was over 100 µM, the TGI (SK-MEL-5 melanoma) was 1.18 µM and the TGI (SK-OV-3 ovarian) was 28.8 µM. The TGI (SN12C renal) was 12.3 µM, the TGI (SNB-19 CNS) was over 49.4 µM and the TGI (SNB-75 CNS) was 8.23 µM. For the same compound, the TGI (SR leukemia) was over 100 µM, the TGI (SW-620 colon) was over 100 µM and the TGI (T-47D breast) was over 24.9 µM. It also gave a TGI (TK-10 renal) of 30.5 µM, a TGI (U251 CNS) of over 34.1 µM and a TGI (UACC-257 melanoma) of over 100 µM. For the same compound, the TGI (UACC-62 melanoma) was over 100 µM and the TGI (UO-31 renal) was 18.1 µM.

With O=C(N/N=C/c1ccc(Cl)cc1)c1c(Cl)c(Cl)c(Cl)c(Cl)c1-c1nc2ccccc2[nH]1 the TGI (786-0 renal) was over 100 µM, the TGI (A498 renal) was over 100 µM and the TGI (A549 NSCLC) was over 100 µM. The TGI (ACHN renal) was over 100 µM, the TGI (BT-549 breast) was over 100 µM and the TGI (CAKI-1 renal) was over 100 µM. For the same compound, the TGI (CCRF-CEM leukemia) was over 100 µM, the TGI (COLO 205 colon) was over 100 µM and the TGI (DU-145 prostate) was over 100 µM. For the same compound, the TGI (EKVX NSCLC) was over 100 µM, the TGI (HCC-2998 colon) was over 100 µM and the TGI (HCT-116 colon) was over 100 µM. For the same compound, the TGI (HCT-15 colon) was over 100 µM, the TGI (HL-60(TB) leukemia) was over 100 µM and the TGI (HOP-62 NSCLC) was over 100 µM. For the same compound, the TGI (HOP-92 NSCLC) was over 100 µM, the TGI (HS 578T breast) was over 100 µM and the TGI (HT29 colon) was over 100 µM. The TGI (IGROV1 ovarian) was over 100 µM, the TGI (K-562 leukemia) was over 100 µM and the TGI (KM12 colon) was over 100 µM. For the same compound, the TGI (LOX IMVI melanoma) was over 100 µM, the TGI (M14 melanoma) was over 100 µM and the TGI (MALME-3M melanoma) was over 100 µM. It also gave a TGI (MCF7 breast) of over 100 µM, a TGI (MDA-MB-435) of over 100 µM and a TGI (MDA-N) of over 100 µM. It also gave a TGI (MOLT-4 leukemia) of over 100 µM, a TGI (NCI-H226 lung) of over 100 µM and a TGI (NCI-H23 lung) of over 100 µM. It also gave a TGI (NCI-H460 lung) of over 100 µM, a TGI (NCI-H522 lung) of over 100 µM and a TGI (NCI/ADR-RES ovarian) of over 100 µM. For the same compound, the TGI (OVCAR-3 ovarian) was over 100 µM, the TGI (OVCAR-5 ovarian) was over 100 µM and the TGI (PC-3 prostate) was over 100 µM. The TGI (RPMI-8226 leukemia) was over 100 µM, the TGI (RXF 393 renal) was over 100 µM and the TGI (SF-268 CNS) was over 100 µM. It also gave a TGI (SF-295 CNS) of over 100 µM, a TGI (SF-539 CNS) of over 100 µM and a TGI (SK-MEL-2 melanoma) of over 100 µM. The TGI (SK-MEL-28 melanoma) was over 100 µM, the TGI (SK-MEL-5 melanoma) was over 100 µM and the TGI (SK-OV-3 ovarian) was over 100 µM. For the same compound, the TGI (SN12C renal) was over 100 µM, the TGI (SNB-19 CNS) was over 100 µM and the TGI (SNB-75 CNS) was over 100 µM. It also gave a TGI (SR leukemia) of over 100 µM, a TGI (SW-620 colon) of over 100 µM and a TGI (T-47D breast) of 47.5 µM. For the same compound, the TGI (UACC-62 melanoma) was over 100 µM and the TGI (UO-31 renal) was over 100 µM.

From PubChem BioAssay (NCI)
